Data taken from patent US20250230165A1, “HETEROCYCLIC COMPOUNDS FOR USE IN THE TREATMENT OF CANCER” (ARTIOS PHARMA LIMITED, priority 2021, published 2025).

molecular target: T1, Human Polθ polymerase domain (aa1820-2590) (Homo sapiens, UniProt O75417); assay: Polθ Polymerase Domain Kinact/KI Assay (PicoGreen); format: biochemical; details: 0.8 nM Polθ, 100 nM DNA substrate, kobs vs [I] fit for 2-step covalent inhibitor
T1 construct: Human Polθ polymerase domain (aa1820-2590) was expressed in E. coli; made in house; host or cells: E. coli
T1 sequence (O75417 1820-2590): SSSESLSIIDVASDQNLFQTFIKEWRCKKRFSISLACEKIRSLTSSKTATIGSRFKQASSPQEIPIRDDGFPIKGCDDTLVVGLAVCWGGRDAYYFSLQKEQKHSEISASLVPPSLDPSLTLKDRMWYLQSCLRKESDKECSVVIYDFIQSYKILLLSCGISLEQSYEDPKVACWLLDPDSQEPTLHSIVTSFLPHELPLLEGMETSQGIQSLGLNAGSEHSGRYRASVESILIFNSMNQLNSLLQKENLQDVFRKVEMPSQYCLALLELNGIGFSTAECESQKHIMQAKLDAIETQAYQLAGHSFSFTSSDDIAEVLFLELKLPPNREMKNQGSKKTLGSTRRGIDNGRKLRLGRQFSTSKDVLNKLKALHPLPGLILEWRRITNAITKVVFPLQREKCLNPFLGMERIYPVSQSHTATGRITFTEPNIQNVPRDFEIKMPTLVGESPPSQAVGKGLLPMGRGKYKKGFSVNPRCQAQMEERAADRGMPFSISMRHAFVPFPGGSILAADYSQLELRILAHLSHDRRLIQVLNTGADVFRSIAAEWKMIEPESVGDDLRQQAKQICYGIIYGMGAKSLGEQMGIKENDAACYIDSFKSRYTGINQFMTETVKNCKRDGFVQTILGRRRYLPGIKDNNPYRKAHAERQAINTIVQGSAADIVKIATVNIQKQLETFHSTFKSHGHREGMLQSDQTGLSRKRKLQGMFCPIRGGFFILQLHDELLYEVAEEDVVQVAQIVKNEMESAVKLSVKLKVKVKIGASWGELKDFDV
Outline: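 Time-dependent inhibition was followed with 0.8 nM polymerase domain, 100 nM DNA substrate and […], reactions quenched over 60 min and quantified by PicoGreen. Kinact and KI came from a secondary plot of kobs against inhibitor concentration.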

SMILES	Kinact/Kl [M⁻¹ s⁻¹]
C=C(CN(CC)CC)C(=O)N1CC(OCCCN2C[C@H]3CC(=O)N(c4cc(C(F)(F)F)cc(C)n4)[C@@H]3C(=O)N(C)c3cccc(Cl)c32)C1 [Example 166, (3aR, 11aS)-6-chloro-5-(3-((1-(2-((diethylamino)methyl)acryloyl)azetidin-3-yl)oxy)propyl)-10-methyl-1-(6-methyl-4-(trifluoromethyl)pyridin-2-yl)-1,3a,4,5,10,11a-hexahydro-2H-benzo[b]pyrrolo[2,3-f][1,4]diazocine-2,11(3H)-dione]	3.41e+06
C=C(CN1CCN(C)CC1)C(=O)N1CC(CCCCN2C[C@H]3CC(=O)N(c4cc(C(F)(F)F)cc(C)n4)[C@@H]3C(=O)N(C)c3cccc(Cl)c32)C1 [Example 167, (3aR,11aS)-6-chloro-10-methyl-1-(6-methyl-4-(trifluoromethyl)pyridin-2-yl)-5-(4-(1-(2-((4-methylpiperazin-1-yl)methyl)acryloyl)azetidin-3-yl)butyl)-1,3a,4,5,10,11a-hexahydro-2H-benzo[b]pyrrolo[2,3-f][1,4]diazocine-2,11(3H)-dione]	4.66e+06
C=C(CO)C(=O)N1CCC(CCCN2C[C@H]3CC(=O)N(c4cc(C(F)(F)F)cc(C)n4)[C@@H]3C(=O)N(C)c3cccc(Cl)c32)CC1 [Example 168, (3aR,11aS)-6-chloro-5-(3-(1-(2-(hydroxymethyl)acryloyl)piperidin-4-yl)propyl)-10-methyl-1-(6-methyl-4-(trifluoromethyl)pyridin-2-yl)-1,3a,4,5,10,11a-hexahydro-2H-benzo[b]pyrrolo[2,3-f][1,4]diazocine-2,11(3H)-dione]	1.97e+06
Cc1cc(C(F)(F)F)cc(N2C(=O)C[C@@H]3CN(Cc4ccc5c(c4)CN(C(=O)/C=C/CN(C)C)C5)c4c(C)cccc4N(C)C(=O)[C@H]32)n1 [Example 176, (3aR,11aS)-5-((2-((E)-4-(dimethyl-amino)but-2-enoyl)isoindolin-5-yl)methyl)-6,10-dimethyl-1-(6-methyl-4-(tri-fluoromethyl)pyr-idin-2-yl)-1,3a,4,5,10,11a-hexa-hydro-2H-benzo [b]pyrrolo[2,3-f] [1,4]diazocine-2,11(3H)-dione]	1.37e+06
C=C(CN(C)C)C(=O)N1CC[C@@H](COCCN2C[C@H]3CC(=O)N(c4cc(C(F)(F)F)cc(C)n4)[C@@H]3C(=O)N(C)c3cccc(C)c32)C1 [Example 180, (3aR,11aS)-5-(2-(((R)-1-(2-((dimeth-ylamino)methyl)-acryloyl)pyrrolidin-3-yl)methoxy)eth-yl)-6,10-dimethyl-1-(6-methyl-4-(trifluoromethyl)-pyridin-2-yl)-1,3a,4,5,10,11a-hexahydro-2H-benzo[b]pyrrolo [2,3-f][1,4]diazo-cine-2,11(3H)-dione]	2.72e+06
C=C(CN(C)C)C(=O)N1CC[C@H](COCCN2C[C@H]3CC(=O)N(c4cc(C(F)(F)F)cc(C)n4)[C@@H]3C(=O)N(C)c3cccc(C)c32)C1 [Example 181, (3aR,11aS)-5-(2-(((S)-1-(2-((dimeth-ylamino)methyl)-acryloyl)pyrrolidin-3-yl)methoxy)eth-yl)-6,10-dimethyl-1-(6-methyl-4-(trifluoromethyl)-pyridin-2-yl)-1,3a,4,5,10,11a-hexahydro-2H-benzo[b]pyrrolo [2,3-f][1,4]diazo-cine-2,11(3H)-dione]	2.26e+06

The remaining lines, values ahead:

Kinact/Kl [M⁻¹ s⁻¹]	SMILES
2.69e+06	Cc1cc(C(F)(F)F)cc(N2C(=O)C[C@@H]3CN(CCCOC4CN(C(=O)/C=C/CN(C)C)C4)c4c(C)cccc4N(C)C(=O)[C@H]32)n1 [Example 169, (3aR,11aS)-5-(3-((1-((E)-4-(dimethylamino)but-2-enoyl)azetidin-3-yl)oxy)propyl)-6,10-dimethyl-1-(6-methyl-4-(trifluoromethyl)pyridin-2-yl)-1,3a,4,5,10,11a-hexahydro-2H-benzo[b]pyrrolo[2,3-f][1,4]diazocine-2,11(3H)-dione]
2.92e+06	C=CC(=O)N1CCn2nc(CN3C[C@H]4CC(=O)N(c5cc(C(F)(F)F)cc(C)n5)[C@@H]4C(=O)N(C)c4cccc(C)c43)cc2C1 [Example 173, (3aR,11aS)-5-((5-acryloyl-4,5,6,7-tetrahydropyrazolo [1,5-a]pyrazin-2-yl)methyl)-6,10-dimethyl-1-(6-methyl-4-(trifluoro-methyl)pyridin-2-yl)-1,3a,4,5,10, 11a-hexahydro-2H-benzo[b]pyrrolo [2,3-f][1,4]diazo-cine-2,11(3H)-dione]
1.08e+06	C=CC(=O)NC12CC(CN3C[C@H]4CC(=O)N(c5cc(C(F)(F)F)cc(C)n5)[C@@H]4C(=O)N(C)c4cccc(C)c43)(C1)C2 [Example 174, N-(3-(((3aR,11aS)-6,10-dimethyl-1-(6-methyl-4-(tri-fluoromethyl)pyr-idin-2-yl)-2,11-dioxo-1,2,3,3a,4, 10,11,11a-octa-hydro-5H-benzo [b]pyrrolo[2,3-f] [1,4]diazocin-5-yl)methyl)bicyclo [1.1.1]pentan-1-yl)acrylamide]
370000	C=CC(=O)NCC12CC(CN3C[C@H]4CC(=O)N(c5cc(C(F)(F)F)cc(C)n5)[C@@H]4C(=O)N(C)c4cccc(C)c43)(C1)C2 [Example 175, N-((3-(((3aR,11aS)-6,10-dimethyl-1-(6-methyl-4-(tri-fluoromethyl)pyr-idin-2-yl)-2,11-dioxo-1,2,3,3a,4, 10,11,11a-octa-hydro-5H-benzo [b]pyrrolo[2,3-f] [1,4]diazocin-5-yl)methyl)bicyclo [1.1.1]pentan-1-yl)-methyl)acrylamide]
260000	Cc1cc(C(F)(F)F)cc(N2C(=O)C[C@@H]3CN(Cc4ccc(CNC(=O)/C=C/CN(C)C)cc4)c4c(C)cccc4N(C)C(=O)[C@H]32)n1 [Example 177, (E)-N-(4-(((3aR, 11aS)-6,10-dimeth-yl-1-(6-methyl-4-(trifluoromethyl)-pyridin-2-yl)-2,11-dioxo-1,2,3,3a,4, 10,11,11a-octa-hydro-5H-benzo[b]pyrrolo[2,3-f][1,4]diazocin-5-yl)-methyl)benzyl)-4-(dimethylamino)-but-2-enamide]
1.6e+06	Cc1cc(C(F)(F)F)cc(N2C(=O)C[C@@H]3CN(CC45CC(NC(=O)/C=C/CN(C)C)(C4)C5)c4c(C)cccc4N(C)C(=O)[C@H]32)n1 [Example 178, (E)-N-(3-(((3aR, 11aS)-6,10-dimeth-yl-1-(6-methyl-4-(trifluoromethyl)-pyridin-2-yl)-2,11-dioxo-1,2,3,3a,4, 10,11,11a-octa-hydro-5H-benzo [b]pyrrolo[2,3-f] [1,4]diazocin-5-yl)methyl)bicyclo [1.1.1]pentan-1-yl)-4-(dimethyl-amino)but-2-enamide]
670000	Cc1cc(C(F)(F)F)cc(N2C(=O)C[C@@H]3CN(CC45CC(CNC(=O)/C=C/CN(C)C)(C4)C5)c4c(C)cccc4N(C)C(=O)[C@H]32)n1 [Example 179, (E)-N-((3-(((3aR, 11aS)-6,10-dimeth-yl-1-(6-methyl-4-(trifluoromethyl)-pyridin-2-yl)-2,11-dioxo-1,2,3,3a,4, 10,11,11a-octa-hydro-5H-benzo [b]pyrrolo[2,3-f] [1,4]diazocin-5-yl)methyl)bicyclo [1.1.1]pentan-1-yl)methyl)-4-(dimethylamino)-but-2-enamide]
5.23e+06	C=C(CN(C)C)C(=O)N1CC(COCCN2C[C@H]3CC(=O)N(c4cc(C(F)(F)F)cc(C)n4)[C@@H]3C(=O)N(C)c3cccc(C)c32)C1 [Example 182, (3aR,11aS)-5-(2-((1-(2-((dimethyl-amino)methyl)-acryloyl)azetidin-3-yl)methoxy)eth-yl)-6,10-dimethyl-1-(6-methyl-4-(trifluoromethyl)-pyridin-2-yl)-1,3a,4,5,10,11a-hexahydro-2H-benzo[b]pyrrolo [2,3-f][1,4]diazo-cine-2,11(3H)-dione]
3.8e+06	C=C(CN(C)C)C(=O)N1CC(CCCCN2C[C@H]3CC(=O)N(c4cc(C(F)(F)F)cc(C)n4)[C@@H]3C(=O)N(C)c3cccc(C)c32)C1 [Example 183, (3aR,11aS)-5-(4-(1-(2-((dimethyl-amino)methyl)-acryloyl)azetidin-3-yl)butyl)-6,10-dimethyl-1-(6-methyl-4-(trifluoro-methyl)pyridin-2-yl)-1,3a,4,5,10,11a-hexahydro-2H-benzo[b]pyrrolo [2,3-f][1,4]diazo-cine-2,11(3H)-dione]
